In patent US10226534B2, “Semi-solid delivery systems” (REGENTS OF THE UNIVERSITY OF MINNESOTA, priority 2013, dated 2019):
≈ marks a conversion by molar mass, not a printed value.

Assay: Solubilization of Nile Red in water aided by the semi-solid polymer
Type: physicochemical
Experimental: Nile Red (NR) is a hydrophobic molecule that is insoluble in water. 3 mg of NR solid particles suspended in 1 mL of aqueous phosphate buffered saline (PBS) without dissolving. With addition of 10% semi-solid polymer (100 mg), NR is completely solubilized in PBS to 3 mg/mL.

With `CCN(CC)c1ccc2nc3c4ccccc4c(=O)cc-3oc2c1` [Nile Red] the solubility (PBS with 10% semi-solid polymer, aqueous with cosolvent or surfactant or cyclodextrin, thermodynamic from solid, with addition of 10% semi-solid polymer (100 mg in 1 mL PBS)) was 3000 µg/mL (≈ 9.42 mM) and the Solubility in water (without polymer) was “insoluble”.
